Test system: phosphorylation of c-Jun at Ser63 in HEKa cells
Assay: UVB-induced c-Jun Ser63 phosphorylation in HEKa keratinocytes (Western immunoblotting)
Type: cell-based, Human
Conditions: HEKa cells from four donors; 50 mJ/cm^2 UVB; Compound 1 added 1 hour before and kept 30 minutes after irradiation; nuclear extract, Western blot (FIGS. 1-5)
Method: Adult Normal Human […] Keratinocytes (HEKa) were obtained from ScienCell. Cells were plated in 10 cm dishes and incubated to allow attachment and then serum starved overnight. Compound 1 was added 1 hour before the cells were irradiated with 50 mJ/cm^2 UVB. Cells were incubated with Compound 1 for an additional 30 minutes after UVB irradiation. Cells were then lysed and nuclear and cytoplasmic proteins were isolated using the Nuclear Extraction kit by Active Motif. Protein was run on 10% tris glycine gels and transferred to nitrocellulose membranes. Blots were blocked for 1 hour. Total and phosphorylated c-Jun primary antibodies were added and incubated overnight. Licor secondary antibodies were added and blots were read on the Li-Cor Odyssey. 1-5. There was increased phosphorylation of c-Jun at Ser63 with 50 mJ/cm^2 UVB radiation, and inhibition by Compound 1 (FIGS. 1-5). There was also good separation of the nuclear and cytoplasmic proteins (c-Jun is only in the nucleus) (FIGS. 1-4).

## C[C@@H]1CC[C@@H](Nc2nc(NC(C)(C)C)ncc2C(N)=O)C[C@H]1O [Compound 1, 2-(tert-butylamino)-4-((1R,3R,4R)-3-hydroxy-4-methylcyclohexylamino)-pyrimidine-5-carboxamide]
  inhibition of phosphorylation of c-Jun at Ser63 induced by UVB radiation: inhibits c-Jun phosphorylation at Ser63 in a dose dependent manor

Source: US10197579B2, “Methods for measurement of inhibition of c-Jun N-terminal kinase in skin” (Signal Pharmaceuticals, LLC, priority 2014, dated 2019)
